Measured values: US4416885A, “Use of isopropylaminopyrimidine in the chemotherapy of muscular dystrophy, myopathy and myotonia” (priority 1982, dated 1983)

Columns and labels:
[1] = test system: Dystrophic monocytes; assay: Effect on human monocytes in culture (flat cells), dystrophic; type: cell-based; conditions: dystrophic monocyte + dibutryl c-GMP, one individual; untreated dystrophic 36.2%; preliminary
[2] = test system: dystrophic New Hampshire chickens, line 413; assay: Overall assessment of chemotherapy over all parameters measured; type: in vivo, chicken; conditions: 413 chickens, after 28 days of dilantin injections
Description: The compound IAPP was tested on dystrophic New Hampshire chickens, line 413, and Imperial College (London, England) sub-line of the original Davis, University of California strain. The chickens are homozygous for muscular dystrophy, the disease appearing with 100% incidence.
Chemotherapy was assessed by application of seven different parameters: physical tests of muscular disability, namely the flip test and wing apposition (W.A.) measurements; biochemical assays of serum and muscle enzume levels of creatine phosphokinase (CPK), pyruvate kinase (PK) and acetylcholinesterase (AChE); and histological comparisons of treated and untreated muscle. Toxicity studies (weight loss, etc.) were also used. A very comprehensive profile of the drug was thus obtained which related to all the known, highly characteristic features of the disease which are applicable to both the animal model and the human. […]

[3] = test system: dystrophic 413 muscle explants; assay: Microtubule complexes in muscle explants of injected dystrophic chickens; type: in vivo, chicken; conditions: dystrophic 413 chickens, 28 days of dilantin injections
Source text: Essentially, these experiments were divided into three subgroups, taken from the previous Table:
413A, 413B, 412A, 412B: All were sacrificed after 4 injections and muscle explants placed in culture.
413C, 412C: All were sacrificed after 8 injections and muscle explants were placed in culture.
413D, 412D: All were sacrificed after 10 injections and muscle explants placed in culture.
All explants were placed in CMRL culture medium containing 5% horse serum, 15% fetal bovine serum and 1% antibiotics and allowed to grow for 5-7 days before being fixed and observed for the presence or absence of microtubules. No IAPP was added to the culture medium during the 5-7 days in culture.

SMILES | % Flat Cells [1] | Appearance of dystrophic chickens [2] | Correction of microtubule defect in explants [3]
CCCC(=O)Nc1nc2c(ncn2[C@@H]2O[C@@H]3COP(=O)(O)O[C@H]3[C@H]2OC(=O)CCC)c(=O)[nH]1 [dibutryl c-GMP, reference compound] | 52.0% |  | 
O=C1NC(=O)C(c2ccccc2)(c2ccccc2)N1 [dilantin, reference compound] |  | Some dystrophic 413 chickens appeared normal | did not have their microtubule defect corrected
